# From patent publication US8158789B2, “Arginine derivatives with NP-I antagonistic activity” (Ark Therapeutics Group Ltd., priority 2006, dated 2012)
# Key:
# [1] = biological target: T1, neuropilin-1 (NP-1) (Homo sapiens, UniProt O14786); experiment: 125I-VEGF-A165 binding; conditions: assay not given; 125I-VEGF-A165 binding is the only concentration-response binding method described
# T1 construct: expressed in transfected cells; host or cells: porcine aortic endothelial cells (PAE/NP-1), hygromycin B selection
# T1 sequence (O14786 22-923): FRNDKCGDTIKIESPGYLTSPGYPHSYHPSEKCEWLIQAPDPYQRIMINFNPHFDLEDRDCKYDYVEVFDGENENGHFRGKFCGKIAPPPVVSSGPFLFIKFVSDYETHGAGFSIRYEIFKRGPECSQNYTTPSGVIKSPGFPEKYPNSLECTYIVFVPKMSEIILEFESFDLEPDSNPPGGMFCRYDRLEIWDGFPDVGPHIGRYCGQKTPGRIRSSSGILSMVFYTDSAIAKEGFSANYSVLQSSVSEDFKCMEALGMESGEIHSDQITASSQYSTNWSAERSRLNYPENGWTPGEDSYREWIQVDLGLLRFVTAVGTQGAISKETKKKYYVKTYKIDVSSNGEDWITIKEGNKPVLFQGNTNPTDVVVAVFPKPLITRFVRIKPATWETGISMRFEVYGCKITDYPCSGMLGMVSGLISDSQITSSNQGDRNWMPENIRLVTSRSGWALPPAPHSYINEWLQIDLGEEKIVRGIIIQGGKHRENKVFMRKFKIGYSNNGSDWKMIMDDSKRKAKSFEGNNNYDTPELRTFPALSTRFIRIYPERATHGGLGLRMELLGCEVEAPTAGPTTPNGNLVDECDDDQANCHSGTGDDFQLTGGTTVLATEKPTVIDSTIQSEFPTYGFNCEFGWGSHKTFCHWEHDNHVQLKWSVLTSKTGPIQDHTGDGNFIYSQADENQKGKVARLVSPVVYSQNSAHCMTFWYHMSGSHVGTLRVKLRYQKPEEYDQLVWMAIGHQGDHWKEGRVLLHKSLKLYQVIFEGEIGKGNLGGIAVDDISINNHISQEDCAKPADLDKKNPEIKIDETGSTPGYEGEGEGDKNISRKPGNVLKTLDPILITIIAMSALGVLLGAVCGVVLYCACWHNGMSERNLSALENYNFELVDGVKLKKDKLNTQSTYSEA
# Experimental: (§1) Porcine aortic endothelial cells expressing neuropilin-1 (PAE/NP-1) were cultured in Ham's F12 medium containing 10% fetal bovine serum (FBS) and 25 μg/ml hygromycin B. PAE cells expressing KDR (PAE/KDR) were grown in Ham's F12 medium containing 10% FBS and 250 μg/ml […] G418. Human carcinoma cell lines (DU145, A549 and ACHN) were grown in RPMI 1640 medium containing 10% FBS and L-glutamine.
# Confluent cells in 24-well plates were washed twice with phosphate-buffered saline (PBS). At 4° C. various concentrations of peptides or peptidomimetics diluted in binding medium (Dulbecco's modified Eagle's medium, 25 mM HEPES pH 7.3 containing 0.1% BSA) were added, followed by addition of 0.1 nM of ^125I-VEGF-A165 (1200-1800 Ci/mmol, GE Healthcare). After 2 h of incubation at 4° C., the medium was aspirated and washed 4 times with cold PBS. The cells were lysed with 0.25 M NaOH, 0.5% SDS solution, and the bound radioactivity of the lysates was measured in a γ counter. Non-specific binding was determined in the presence of 100-fold excess unlabelled VEGF-A165.
# [2] = tested on: DU145 cancer cells; experiment: Cell-matrix adhesion (Innocyte ECM cell adhesion assay); format: cell-based, Human; conditions: concentrations from 10-100 μM
# Experimental: as §1
# Cell adhesion to extracellular matrix proteins (basement membrane protein complex, laminin I, collagen IV, fibronectin or vitronectin) was measured by the Innocyte ECM cell adhesion assay (Calbiochem). Cells were detached with a non-enzyme cell dissociation solution (Sigma), washed and resuspended in RPMI 1640 medium. Cells with or without peptidomimetic treatment were seeded at 3×10^4 cells per matrix-coated well of 96-well plates. After 1.5 h incubation, cells were washed with PBS. The attached cells were labelled with the green fluorescent dye calcein-AM and measured using a fluorescence plate reader at an excitation wavelength of 485 nm and an emission wavelength of 520 nm.
# [3] = tested on: A549 cells; experiment: Cell migration (chemotaxis transwell); format: cell-based, Human; conditions: concentrations from 10-100 μM
# Experimental: as §1
# (§2) Cell migration was measured in chemotaxis 24-transwell plates with collagen 1-coated inserts. The various concentrations of serum in RPMI 1640/0.1% BSA were placed in the bottom wells of the plates, while top inserts incorporating PET (polyethylene terephthalate) track-etched membranes with 8 micron pores (Becton Dickinson Biosciences) were placed over the bottom wells. Cells were trypsinised, washed and resuspended in RPMI 1640/0.1% BSA. 1.5×10^6 cells with or without peptide or peptidomimetic treatment as indicated were loaded into each top inserts, and the chemotaxis trans-well plates were incubated at 37° C. for 4 h. After the incubation, non-migrated cells on the top side of the trans-well membranes were removed, and migrated cells on the under side of the trans-well membranes were stained with the REASTAIN Quick-Diff kit (REAGENA). The stained cells from each well were counted in 4 fields at ×100 magnification using an eyepiece indexed graticule (100 grids).
# [4] = tested on: ACHN cells; experiment: Cell migration (chemotaxis transwell); format: cell-based, Human; conditions: concentrations from 10-100 μM
# Experimental: as §1, §2
# [5] = tested on: A549 cells; experiment: Cell viability (XTT); format: cell-based, Human; conditions: concentration of 100 μM
# Experimental: Human carcinoma cell lines (DU145, A549 and ACHN) were grown in RPMI 1640 medium containing 10% FBS and L-glutamine. Cell Viability Cell viability was determined by measurement of conversion of the tetrazolium salt XTT to form formazon dye. Carcinoma cells were seeded at a density of 4×10^3 cells per well in 96-well plates in the absence or presence of NP-1 peptide or peptidomimetic antagonists. After 44 h incubation, XTT labelling reagent mixture (Roche) was added to the cultures and they were incubated for a further 4 h. The formazon production was then measured at A490 nm with a reference wavelength at 595 nm.
SMILES,IC50 [1] [µM],inhibiting the adhesion of DU145 cancer cells to extracellular matrix proteins [2],migration of A549 cells [3],migration of ACHN cells [4],viability of A549 cells [5]
"N=C(N)NCCC[C@H](NC(=O)c1sccc1NS(=O)(=O)c1ccc(N)cc1)C(=O)O [EG00144, (S)-2-{[3-(4-Amino-benzenesulfonylamino)-thiophene-2-carbonyl]-amino}-5-guanidino-pentanoic acid]",< 20,effective,decreased migration,decreased migration,–
"N=C(N)NCCC[C@H](NC(=O)c1sccc1NS(=O)(=O)c1cccc2nsnc12)C(=O)O [EG00229, (S)-2-{[3-(Benzo[1,2,5]thiadiazole-4-sulfonylamino)-thiophene-2-carbonyl]-amino}-5-guanidino-pentanoic acid]",< 20,–,–,–,reduced the viability
